Laboratory results taken from US12070455B2, “Thienopyrrole compounds” (Gilead Sciences, Inc., priority 2021, dated 2024).

Key:
TLR7 = target: T1, TLR7 (Homo sapiens, UniProt Q9NYK1); experiment: TLR7 human peripheral blood mononuclear cell (PBMC) cell-based assay; details: human PBMCs; 1 h with test antagonist, then TLR7 agonist GS-986 400 nM for 6 h; cytokines (IL-6 and IFNα) in supernatant; read-out: TLR-7 EC50
T1 construct: Human peripheral blood mononuclear cells (PBMCs) consist of lymphocytes, monocytes and dendritic cells that express TLR7, TLR8 and TLR9; endogenous in cells; host or cells: cryopreserved human PBMCs from healthy donors
T1 sequence (Q9NYK1 27-1049): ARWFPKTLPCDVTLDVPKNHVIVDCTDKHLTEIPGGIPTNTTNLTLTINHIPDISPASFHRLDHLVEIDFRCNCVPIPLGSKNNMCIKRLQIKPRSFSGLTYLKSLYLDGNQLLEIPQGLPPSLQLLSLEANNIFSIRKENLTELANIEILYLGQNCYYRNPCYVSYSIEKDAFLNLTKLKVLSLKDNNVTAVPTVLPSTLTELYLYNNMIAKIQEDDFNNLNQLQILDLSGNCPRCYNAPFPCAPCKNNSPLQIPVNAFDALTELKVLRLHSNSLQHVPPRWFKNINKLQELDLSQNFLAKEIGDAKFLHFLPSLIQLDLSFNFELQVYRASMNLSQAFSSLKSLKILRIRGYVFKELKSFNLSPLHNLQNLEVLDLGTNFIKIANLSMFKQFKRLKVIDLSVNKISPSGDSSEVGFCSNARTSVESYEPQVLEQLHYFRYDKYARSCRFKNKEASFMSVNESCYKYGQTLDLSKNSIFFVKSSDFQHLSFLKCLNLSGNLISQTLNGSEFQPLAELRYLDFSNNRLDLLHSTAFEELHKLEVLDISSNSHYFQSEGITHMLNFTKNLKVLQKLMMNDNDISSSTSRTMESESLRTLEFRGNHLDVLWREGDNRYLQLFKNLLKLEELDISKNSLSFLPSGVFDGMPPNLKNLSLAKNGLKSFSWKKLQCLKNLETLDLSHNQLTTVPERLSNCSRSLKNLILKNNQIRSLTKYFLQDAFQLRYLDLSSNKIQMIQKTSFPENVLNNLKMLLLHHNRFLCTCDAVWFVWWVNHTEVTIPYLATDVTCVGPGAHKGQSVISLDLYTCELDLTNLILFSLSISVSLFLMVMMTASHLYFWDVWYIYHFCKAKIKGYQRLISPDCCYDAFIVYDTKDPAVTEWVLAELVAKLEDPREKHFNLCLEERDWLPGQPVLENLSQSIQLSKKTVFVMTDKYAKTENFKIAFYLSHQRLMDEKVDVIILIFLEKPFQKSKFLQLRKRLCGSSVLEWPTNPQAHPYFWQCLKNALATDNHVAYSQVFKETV
Text: TLR7/9 Human Peripheral Blood Mononuclear Cell (PBMC) Cell-Based Assay
Human peripheral blood mononuclear cells (PBMCs) consist of lymphocytes, monocytes and dendritic cells that express TLR7, TLR8 and TLR9. These cells respond to TLR7, TLR8 and TLR9 ligand stimulation and produce cytokines and chemokines in vitro and in vivo. Human PBMCs are therefore suitable to be used in a cell-based assay to assess the in vitro potency of a TLR 7, 8, and/or 9 antagonist.
Cryopreserved human PBMCs from healthy donors were thawed and resuspended in RPMI-1640 media with L-glutamine (Corning) supplemented with 10% Fetal Bovine Serum (Hyclone) and 1× Penicillin-Streptomycin (Corning). After counting, the cell density was adjusted to 2 million cells/ml and incubated for 1 hour at 37° C., 5% CO2 for recovery. Following the recovery, the cells were plated by adding 50 μl per well (100,000 cells) to 384-well cell culture plates (Greiner) containing 250 nl of test antagonists in 100% DMSO per well, in a 10 points dose response in quadruplicates. PBMCs were incubated in the presence of test antagonists for one hour at 37° C., 5% CO2 before being stimulated with a TLR7 or TLR9 agonist. GS-986 (Gilead Sciences) was used as the TLR7 agonist at a final concentration of 400 nM. ODN-2216 (InvivoGen) was used as the TLR9 agonist at a final concentration of 3 μM. PBMCs were incubated in the presence of the test antagonist and the TLR7 (or TLR9) agonist for an additional 6 hours at 37° C., 5% CO2. At the end of the incubation, the cell culture plates were centrifuged at 500 g for 5 min, and the cell culture supernatant was collected. The level of cytokines (IL-6 and IFNα) in the supernatant was measured by electrochemiluminescence immunoassays (Mesoscale Discovery) following manufacturer's recommended protocols. The level of cytokine measured was plotted against the test antagonist concentration and fitted to a sigmoidal function to determine the EC50, which are shown below in Table 6.

TLR8 = target: T2, TLR8 (Homo sapiens, UniProt Q9NR97); experiment: TLR8 human peripheral blood mononuclear cell (PBMC) cell-based assay; details: human PBMCs; 1 h with antagonist, then TLR8 agonist Compound A 800 nM for 6 h; cytokines (TNFa and IL12p40) in supernatant; read-out: TLR-8 EC50
T2 construct: Human peripheral blood mononuclear cells (PBMCs) consist of lymphocytes, monocytes and dendritic cells that express TLR7, TLR8 and TLR9; endogenous in cells; host or cells: cryopreserved human PBMCs from healthy donors
T2 sequence (Q9NR97 27-1041): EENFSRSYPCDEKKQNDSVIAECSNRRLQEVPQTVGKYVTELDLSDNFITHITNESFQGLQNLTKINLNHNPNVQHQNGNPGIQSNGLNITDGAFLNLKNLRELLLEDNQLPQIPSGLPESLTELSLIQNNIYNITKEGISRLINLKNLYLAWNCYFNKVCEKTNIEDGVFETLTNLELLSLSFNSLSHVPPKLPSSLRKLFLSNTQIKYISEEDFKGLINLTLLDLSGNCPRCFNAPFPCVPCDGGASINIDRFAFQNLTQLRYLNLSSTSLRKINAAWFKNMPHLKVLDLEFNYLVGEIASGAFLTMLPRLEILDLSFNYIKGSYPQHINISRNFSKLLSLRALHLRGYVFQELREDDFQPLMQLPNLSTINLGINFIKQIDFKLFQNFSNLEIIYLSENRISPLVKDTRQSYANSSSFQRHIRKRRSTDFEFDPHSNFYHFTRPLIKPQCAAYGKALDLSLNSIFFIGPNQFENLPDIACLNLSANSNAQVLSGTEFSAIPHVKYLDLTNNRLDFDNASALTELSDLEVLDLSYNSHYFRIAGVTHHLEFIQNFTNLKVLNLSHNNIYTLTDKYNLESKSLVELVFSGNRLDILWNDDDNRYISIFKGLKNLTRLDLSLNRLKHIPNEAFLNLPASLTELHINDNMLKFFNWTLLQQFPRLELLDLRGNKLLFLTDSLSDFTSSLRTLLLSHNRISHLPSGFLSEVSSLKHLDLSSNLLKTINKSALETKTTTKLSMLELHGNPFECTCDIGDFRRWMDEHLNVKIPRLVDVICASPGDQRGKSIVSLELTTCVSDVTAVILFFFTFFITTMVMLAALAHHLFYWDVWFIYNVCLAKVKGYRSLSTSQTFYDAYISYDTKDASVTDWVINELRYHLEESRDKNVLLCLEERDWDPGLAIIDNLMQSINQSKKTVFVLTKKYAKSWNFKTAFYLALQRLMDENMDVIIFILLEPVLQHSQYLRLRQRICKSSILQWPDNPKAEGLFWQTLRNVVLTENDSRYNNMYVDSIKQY
Method: TLR8 Human Peripheral Blood Mononuclear Cell (PBMC) Cell-Based Assay
Cryopreserved human PBMCs from healthy donors were thawed and resuspended in RPMI-1640 media with L-glutamine (Corning) supplemented with 10% Fetal Bovine Serum (Hyclone) and 1× Penicillin-Streptomycin (Corning). After counting, the cell density was adjusted to 2 million cells/ml and incubated for 1 hour at 37° C., 5% CO2 for recovery. Following the recovery, the cells were plated by adding 50 μl per well (100,000 cells) to 384-well cell culture plates (Greiner) containing 250 nl of test antagonists in 100% DMSO per well, in a 10 points dose response in quadruplicates. PBMCs were incubated in the presence of antagonists for one hour at 37° C., 5% CO2 before being stimulated with TLR8 agonist. Compound A (Gilead Sciences, U.S. Pat. No. 10,285,990) was used as the TLR8 agonist at a final concentration of 800 nM. PBMCs were incubated in the presence of antagonist and the TLR8 agonist for an additional 6 hours at 37° C., 5% CO2. At the end of the incubation, the cell culture plates were centrifuged at 500 g for 5 min, and the cell culture supernatant was collected. The level of cytokines (TNFa and IL12p40) in the supernatant was measured by electrochemiluminescence immunoassays (Mesoscale Discovery) following manufacturer's recommended protocols. The level of cytokine measured was plotted against the antagonist concentration and fitted to a sigmoidal function to determine the EC50, which are shown below in Table 6.

| SMILES | EC50 (TLR7) [nM] | EC50 (TLR8) [nM] |
| --- | --- | --- |
| Cc1c(C2CCNCC2)sc2[nH]c(-c3cn4ncnc4c4c3CCC4)c(C(C)C)c12 [Example 1, 5-(8,9-dihydro-7H-cyclopenta[c][1,2,4]triazolo[1,5-a]pyridin-6-yl)-4-isopropyl-3-methyl-2-(piperidin-4-yl)-6H-thieno[2,3-b]pyrrole] | 0.11 | 1.89 |
| Cc1c(C2CC3CCC(C2)N3)sc2[nH]c(-c3cn4ncnc4c4c3CCC4)c(C(C)C)c12 (stereo not shown) [Example 2] | 0.95 | 3.94 |
| Cc1c(C2C[C@@H]3C[C@H]2CN3)sc2[nH]c(-c3cn4ncnc4c4c3CCC4)c(C(C)C)c12 (stereo partly shown) [Example 3] | 0.77 | 0.31 |
| Cc1c(C23CCNCC2C3)sc2[nH]c(-c3cn4ncnc4c4c3CCC4)c(C(C)C)c12 (stereo not shown) [Example 5, 2-(3-azabicyclo[4.1.0]heptan-6-yl)-5-(8,9-dihydro-7H-cyclopenta[c][1,2,4]triazolo[1,5-a]pyridin-6-yl)-4-isopropyl-3-methyl-6H-thieno[2,3-b]pyrrole] | 0.23 | 1.76 |
| Cc1c(C2CCN(CC(N)=O)CC2)sc2[nH]c(-c3cn4ncnc4c4c3CCC4)c(C(C)C)c12 [Example 6, 2-(4-(5-(8,9-dihydro-7H-cyclopenta[c][1,2,4]triazolo[1,5-a]pyridin-6-yl)-4-isopropyl-3-methyl-6H-thieno[2,3-b]pyrrol-2-yl)piperidin-1-yl)acetamide] | 0.35 | 3.06 |
| Cc1c(C2CC3CCC(C2)N3CC(N)=O)sc2[nH]c(-c3cn4ncnc4c4c3CCC4)c(C(C)C)c12 (stereo not shown) [Example 7] | 0.78 | 3.91 |
| Cc1c(C2C[C@@H]3C[C@H]2CN3CC(N)=O)sc2[nH]c(-c3cn4ncnc4c4c3CCC4)c(C(C)C)c12 (stereo partly shown) [Example 8] | 0.69 | 0.14 |
| Cc1c(C2CC3(CCN(CC(N)=O)C3)C2)sc2[nH]c(-c3cn4ncnc4c4c3CCC4)c(C(C)C)c12 (stereo not shown) [Example 9] | 1.17 | 0.32 |
| Cc1c(C23CCN(CC(N)=O)CC2C3)sc2[nH]c(-c3cn4ncnc4c4c3CCC4)c(C(C)C)c12 (stereo not shown) [Example 10] | 0.26 | 15.3 |
| Cc1c(C2CCN(S(=O)(=O)N3CCNCC3)CC2)sc2[nH]c(-c3cn4ncnc4c4c3CCC4)c(C(C)C)c12 [Example 11, 5-(8,9-dihydro-7H-cyclopenta[c][1,2,4]triazolo[1,5-a]pyridin-6-yl)-4-isopropyl-3-methyl-2-(1-(piperazin-1-ylsulfonyl)piperidin-4-yl)-6H-thieno[2,3-b]pyrrole] | 0.32 | 4.7 |
| Cc1c(C2CCN(CC3(C)COC3)CC2)sc2[nH]c(-c3cn4ncnc4c4c3CCC4)c(C(C)C)c12 [Example 12, 5-(8,9-dihydro-7H-cyclopenta[c][1,2,4]triazolo[1,5-a]pyridin-6-yl)-4-isopropyl-3-methyl-2-(1-((3-methyloxetan-3-yl)methyl)piperidin-4-yl)-6H-thieno[2,3-b]pyrrole] | 6.08 | 4.74 |
| Cc1c(C2CCN(Cc3ccn(C)n3)CC2)sc2[nH]c(-c3cn4ncnc4c4c3CCC4)c(C(C)C)c12 [Example 13] | 1.44 | 5.84 |
| Cc1c(C2CCN(C(=O)[C@H]3COCCN3)CC2)sc2[nH]c(-c3cn4ncnc4c4c3CCC4)c(C(C)C)c12 [Example 14, (R)-(4-(5-(8,9-dihydro-7H-cyclopenta[c][1,2,4]triazolo[1,5-a]pyridin-6-yl)-4-isopropyl-3-methyl-6H-thieno[2,3-b]pyrrol-2-yl)piperidin-1-yl)(morpholin-3-yl)methanone] | 0.58 | 4.87 |
| Cc1c(C2CCN(C(=O)[C@@H]3COCCN3)CC2)sc2[nH]c(-c3cn4ncnc4c4c3CCC4)c(C(C)C)c12 [Example 15] | 0.29 | 5.26 |
| Cc1c(C2CCN(C(=O)[C@H]3C[C@@H](F)CN3)CC2)sc2[nH]c(-c3cn4ncnc4c4c3CCC4)c(C(C)C)c12 [Example 16] | 1.46 | 12.5 |
| Cc1c(C2CCN(C(=O)[C@H]3C[C@H](F)CN3)CC2)sc2[nH]c(-c3cn4ncnc4c4c3CCC4)c(C(C)C)c12 [Example 17] | 0.68 | 15.2 |
| CO[C@H]1CN[C@@H](C(=O)N2CCC(c3sc4[nH]c(-c5cn6ncnc6c6c5CCC6)c(C(C)C)c4c3C)CC2)C1 [Example 18] | 0.44 | 4.42 |
